# Test results from publication PMC8611673 (JACS Au, 2021).
# Tested on: HeLa 654 cells
# Experiment: EGFP assay with chemical endocytosis inhibitors
# Format: cell-based, human
# Conditions: higher concentrations of the inhibitor
row,SMILES,toxicity of the inhibitor to HeLa 654 cells
1,C=C1[C@@H](C)[C@H]2[C@H](Cc3ccccc3)NC(=O)[C@]23[C@H](OC(C)=O)/C=C/[C@@](C)(O)C(=O)[C@@H](C)C/C=C/[C@H]3[C@@H]1O [cytochalasin D],appeared to be toxic
2,COC[C@H]1OC(=O)c2coc3c2[C@@]1(C)C1=C(C3=O)[C@@H]2CCC(=O)[C@@]2(C)C[C@H]1OC(C)=O [wortmannin],appeared to be toxic
